This assay concerns CD8F1 mice, subcutaneous mammary adenocarcinoma, T/C%. Briefly: NCI In Vivo Anticancer Drug Screen. Data for tumor model Mammary Adenocarcinoma CD8F1 (subcutaneous) in CD8F1. To be noted: higher = larger tumour. In a few lines:
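Transplantable tumors were established in mice, animals were dosed with compound or vehicle, and survival or tumor size was then measured in both groups. The treated result was divided by the control result.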

The mark [1] stands for this setting: endpoint: median tumor weight (est.), dose: 12.5 mg/kg/injection, schedule: Q07DX005 (ip), vehicle: saline with Tween-80.

Here are results for eleven compounds from PubChem BioAssay AID220 (DTP/NCI, 2004).

Where “and” joins values, the source holds several entries; their conditions need not be identical. Identical values can stand only once. Results filed as inconclusive are left out.

As to `CC/C(=C(/CC)c1ccc(O)cc1)c1ccc(O)cc1`, the T/C (endpoint: median tumor weight (est.), dose: 12.5 mg/kg/injection, schedule: Q07DX005 (ip), vehicle: water) was 70 % of control; the T/C (endpoint: median tumor weight (est.), dose: 25.0 mg/kg/injection, schedule: Q07DX005 (ip), vehicle: water) is 66 % of control; the T/C (endpoint: median tumor weight (est.), dose: 50.0 mg/kg/injection, schedule: Q07DX005 (ip), vehicle: water) was 111 % of control; the T/C (endpoint: median tumor weight (est.), dose: 100.0 mg/kg/injection, schedule: Q07DX005 (ip), vehicle: water) is 101 % of control; the T/C (endpoint: median tumor weight (est.), dose: 200.0 mg/kg/injection, schedule: Q07DX005 (ip), vehicle: water) was 49 % of control.

On to `CCCCNC(C)[C@]1(O)Cc2c(O)c3c(c(O)c2[C@@H](OC2CC(N)C(O)C(C)O2)C1)C(=O)c1c(OC)cccc1C3=O` (stereo not given in full), for which the T/C reads like this: (endpoint: median tumor weight (est.), dose: 2.67 mg/kg/injection, schedule: Q07DX005 (ip), vehicle: water) 89 % of control; (endpoint: median tumor weight (est.), dose: 4.0 mg/kg/injection, schedule: Q07DX005 (ip), vehicle: water) 74 % of control; (endpoint: median tumor weight (est.), dose: 6.0 mg/kg/injection, schedule: Q07DX005 (ip), vehicle: water) 47 % of control.

Regarding `NC1=NCN(C2OC(CO)C(O)C2O)C(=O)N1` (stereo not given), the T/C (endpoint: median tumor weight (est.), dose: 25.0 mg/kg/injection, schedule: Q07DX004 (ip), vehicle: saline) is 74 % of control; the T/C (endpoint: median tumor weight (est.), dose: 25.0 mg/kg/injection, schedule: Q07DX005 (ip), vehicle: suspension in saline) is 59 % of control; the T/C (endpoint: median tumor weight (est.), dose: 50.0 mg/kg/injection, schedule: Q07DX004 (ip), vehicle: saline) was 76 % of control; the T/C (endpoint: median tumor weight (est.), dose: 50.0 mg/kg/injection, schedule: Q07DX005 (ip), vehicle: suspension in saline) was 45 % of control; the T/C (endpoint: median tumor weight (est.), dose: 100.0 mg/kg/injection, schedule: Q07DX004 (ip), vehicle: saline) was 107 % of control; the T/C (endpoint: median tumor weight (est.), dose: 100.0 mg/kg/injection, schedule: Q07DX005 (ip), vehicle: suspension in saline) was 56 % of control. Further, the T/C was 72 % of control (endpoint: median tumor weight (est.), dose: 200.0 mg/kg/injection, schedule: Q07DX004 (ip), vehicle: saline); 61 % of control (endpoint: median tumor weight (est.), dose: 200.0 mg/kg/injection, schedule: Q07DX005 (ip), vehicle: suspension in saline); 49 % of control (endpoint: median tumor weight (est.), dose: 400.0 mg/kg/injection, schedule: Q07DX004 (ip), vehicle: saline); 34 % of control (endpoint: median tumor weight (est.), dose: 400.0 mg/kg/injection, schedule: Q07DX005 (ip), vehicle: suspension in saline); 35 % of control (endpoint: median tumor weight (est.), dose: 800.0 mg/kg/injection, schedule: Q07DX004 (ip), vehicle: saline); 13 % of control (endpoint: median tumor weight (est.), dose: 800.0 mg/kg/injection, schedule: Q07DX005 (ip), vehicle: suspension in saline).

Take `CCCCCCCCCCCCCCCC(=O)Nc1ccn(C2OC(CO)C(O)C2O)c(=O)n1` (stereo not given): the T/C (endpoint: median tumor weight (est.), dose: 12.5 mg/kg/injection, schedule: Q07DX005 (ip), vehicle: saline) was 58 % of control; the T/C (endpoint: median tumor weight (est.), dose: 25.0 mg/kg/injection, schedule: Q07DX005 (ip), vehicle: saline) was 63 % of control; the T/C (endpoint: median tumor weight (est.), dose: 50.0 mg/kg/injection, schedule: Q07DX005 (ip), vehicle: saline) is 65 % of control; the T/C (endpoint: median tumor weight (est.), dose: 100.0 mg/kg/injection, schedule: Q07DX005 (ip), vehicle: saline) is 31 % of control; the T/C (endpoint: median tumor weight (est.), dose: 400.0 mg/kg/injection, schedule: Q07DX005 (ip), vehicle: saline) is 14 % of control.

For `COc1cc2cc[n+](C)c(Cc3ccccc3)c2cc1OC`, the T/C was 123 % of control (endpoint: median tumor weight (est.), dose: 6.25 mg/kg/injection, schedule: Q07DX005 (ip), vehicle: saline with Tween-80); 83 % of control under setting [1]; 94 % of control (endpoint: median tumor weight (est.), dose: 25.0 mg/kg/injection, schedule: Q07DX005 (ip), vehicle: saline with Tween-80); 75 % of control (endpoint: median tumor weight (est.), dose: 50.0 mg/kg/injection, schedule: Q07DX005 (ip), vehicle: saline with Tween-80).

For the compound `Cc1c(-c2ccc(-c3ccccc3F)cc2)nc2ccc(F)cc2c1C(=O)O`, the T/C by setting is: (endpoint: median tumor weight change, dose: 5.6 mg/kg/injection, schedule: Q01DX005 (ip), vehicle: water) 53 % of control; (endpoint: median tumor weight change, dose: 11.25 mg/kg/injection, schedule: Q01DX005 (ip), vehicle: water) 33 % of control; (endpoint: median tumor weight change, dose: 19.0 mg/kg/injection, schedule: Q01DX005 (ip), vehicle: water) 74 % of control; (endpoint: median tumor weight change, dose: 22.5 mg/kg/injection, schedule: Q01DX005 (ip), vehicle: water) 29 % of control; (endpoint: median tumor weight change, dose: 32.4 mg/kg/injection, schedule: Q01DX005 (ip), vehicle: water) 13 % of control; (endpoint: median tumor weight change, dose: 45.0 mg/kg/injection, schedule: Q01DX001 (ip), vehicle: water) 56 % of control. Also, the T/C reads like this: (endpoint: median tumor weight change, dose: 45.0 mg/kg/injection, schedule: Q01DX005 (ip), vehicle: water) 24 % of control; (endpoint: median tumor weight change, dose: 54.0 mg/kg/injection, schedule: Q01DX005 (ip), vehicle: water) 27 % of control; (endpoint: median tumor weight change, dose: 90.0 mg/kg/injection, schedule: Q01DX001 (ip), vehicle: water) 82 % of control; (endpoint: median tumor weight change, dose: 90.0 mg/kg/injection, schedule: Q01DX005 (ip), vehicle: water) 15 % of control and 20 % of control.

Consider `COc1cc2cc(c1Cl)N(C)C(=O)C[C@H](OC(=O)[C@H](C)N(C)C(C)=O)[C@]1(C)O[C@H]1[C@H](C)[C@@H]1C[C@@](O)(NC(=O)O1)[C@H](OC)C=C/C=C(\C)C2`, for which the T/C (endpoint: median tumor weight (est.), dose: 0.03 mg/kg/injection, schedule: Q07DX005 (ip), vehicle: Klucel (hydroxypropylcellulose) (HPC)) was 167 % of control; the T/C (endpoint: median tumor weight (est.), dose: 0.06 mg/kg/injection, schedule: Q07DX005 (ip), vehicle: Klucel (hydroxypropylcellulose) (HPC)) is 151 % of control; the T/C (endpoint: median tumor weight (est.), dose: 0.12 mg/kg/injection, schedule: Q07DX005 (ip), vehicle: Klucel (hydroxypropylcellulose) (HPC)) is 264 % of control; the T/C (endpoint: median tumor weight (est.), dose: 0.25 mg/kg/injection, schedule: Q07DX005 (ip), vehicle: Klucel (hydroxypropylcellulose) (HPC)) was 188 % of control; the T/C (endpoint: median tumor weight (est.), dose: 62.0 micrograms/kg/injection, schedule: Q07DX005 (ip), vehicle: Klucel (hydroxypropylcellulose) (HPC)) is 54 % of control; the T/C (endpoint: median tumor weight (est.), dose: 125.0 micrograms/kg/injection, schedule: Q07DX005 (ip), vehicle: Klucel (hydroxypropylcellulose) (HPC)) is 77 % of control. Further, the T/C is, setting by setting: (endpoint: median tumor weight (est.), dose: 250.0 micrograms/kg/injection, schedule: Q07DX005 (ip), vehicle: Klucel (hydroxypropylcellulose) (HPC)) 110 % of control; (endpoint: median tumor weight (est.), dose: 500.0 micrograms/kg/injection, schedule: Q07DX005 (ip), vehicle: Klucel (hydroxypropylcellulose) (HPC)) 93 % of control; (endpoint: median tumor weight change, dose: 125.0 micrograms/kg/injection, schedule: Q01DX001 (ip), vehicle: Klucel (hydroxypropylcellulose) (HPC)) 67 % of control; (endpoint: median tumor weight change, dose: 500.0 micrograms/kg/injection, schedule: Q01DX001 (ip), vehicle: Klucel (hydroxypropylcellulose) (HPC)) 29 % of control and 35 % of control; (endpoint: median tumor weight change, dose: 1000.0 micrograms/kg/injection, schedule: Q01DX001 (ip), vehicle: Klucel (hydroxypropylcellulose) (HPC)) 3 % of control and 21 % of control; (endpoint: median tumor weight change, dose: 2000.0 micrograms/kg/injection, schedule: Q01DX001 (ip), vehicle: Klucel (hydroxypropylcellulose) (HPC)) 12 % of control.

`CCCCCn1c(C)cc(/C=C\c2ccc3cc(C)ccc3[n+]2C)c1C`: the T/C by setting is: (endpoint: median tumor weight (est.), dose: 39.0 micrograms/kg/injection, schedule: Q07DX005 (ip), vehicle: Klucel (hydroxypropylcellulose) (HPC)) 87 % of control; (endpoint: median tumor weight (est.), dose: 78.0 micrograms/kg/injection, schedule: Q07DX005 (ip), vehicle: Klucel (hydroxypropylcellulose) (HPC)) 72 % of control; (endpoint: median tumor weight (est.), dose: 156.0 micrograms/kg/injection, schedule: Q07DX005 (ip), vehicle: Klucel (hydroxypropylcellulose) (HPC)) 76 % of control; (endpoint: median tumor weight (est.), dose: 312.0 micrograms/kg/injection, schedule: Q07DX005 (ip), vehicle: Klucel (hydroxypropylcellulose) (HPC)) 111 % of control; (endpoint: median tumor weight (est.), dose: 625.0 micrograms/kg/injection, schedule: Q07DX005 (ip), vehicle: Klucel (hydroxypropylcellulose) (HPC)) 107 % of control.

On to `CCC1=C2C(=O)c3ccccc3C2=C(C)S(=O)(=O)O1`, for which the T/C is 120 % of control (endpoint: median tumor weight change, dose: 31.25 mg/kg/injection, schedule: Q01DX001 (ip), vehicle: saline with Tween-80); 185 % of control (endpoint: median tumor weight change, dose: 62.5 mg/kg/injection, schedule: Q01DX001 (ip), vehicle: saline with Tween-80); 116 % of control (endpoint: median tumor weight change, dose: 125.0 mg/kg/injection, schedule: Q01DX001 (ip), vehicle: saline with Tween-80).

Consider `CCO/C=C1\SC(=S)N(c2ccccc2C)C1=O`, for which the T/C was 106 % of control under setting [1]; 115 % of control (endpoint: median tumor weight (est.), dose: 100.0 mg/kg/injection, schedule: Q07DX005 (ip), vehicle: saline with Tween-80); 95 % of control (endpoint: median tumor weight (est.), dose: 200.0 mg/kg/injection, schedule: Q07DX005 (ip), vehicle: saline with Tween-80); 67 % of control (endpoint: median tumor weight (est.), dose: 400.0 mg/kg/injection, schedule: Q07DX005 (ip), vehicle: saline with Tween-80).

As for `[N-]=[N+]=C1N=CN=C1c1ncn[nH]1`, the T/C (endpoint: median tumor weight (est.), dose: 3.12 mg/kg/injection, schedule: Q07DX005 (ip), vehicle: carboxymethylcellulose (CMC)) was 91 % of control and the T/C (endpoint: median tumor weight (est.), dose: 6.25 mg/kg/injection, schedule: Q07DX005 (ip), vehicle: carboxymethylcellulose (CMC)) is 95 % of control.
